Measured values taken from patent US20140343143A1, “Use of highly concentrated compositions of selected n-3 fatty acids for the treatment of central nervous system disturbances” (priority 2004, published 2014).

Experiments:
[1] = test system: pentylenetetrazol-induced major motor seizures; test: Pentylenetetrazol (100 mg/kg i.p.)-induced seizures in rats (Example 4); format: in vivo, rat
Procedure: At the end, all the groups were treated with 100 mg/kg i.p. of pentylenetetrazol, and the animals underwent the following control exams: 1) length of latency period to the first major motor seizures (tonic-clonic contractions of the limbs, trunk and head; falling; saliva and blood discharge from the mouth); 2) number of rats responding with major motor seizures (or protected from seizure); 3) mean duration of the major motor seizure (MMS); 4) number of rats presenting minor clonic contractions (MCC), such as a sudden flexion of the forelegs or extension of the rear legs; 5) number of rats who died within 20 minutes or 5 hours after pentylenetetrazol injection.

[2] = test system: seizures in study strain rats; test: Preliminary determination of the epileptogenic ED50 of pentylenetetrazol; format: in vivo; details: Rattus norvegicus, ip, read-out: ED50 (dose effective on 50% of rats) of the epileptogenic agent, i.p., preliminary experiment
[3] = test system: amphetamine-induced hyperactivity and risk-taking behaviour; test: Amphetamine-induced behavioural model of mania, open field test in rats; details: sodium valproate 20 mg/kg i.p., short times, preliminary experiment
[4] = daily i.p. 2 weeks: n-3 50 mg/kg, clonazepam 5 mg/kg, or same doses combined, then pentylenetetrazol 100 mg/kg i.p., mean ± SD

Structure (SMILES): O=C1CN=C(c2ccccc2Cl)c2cc([N+](=O)[O-])ccc2N1 [clonazepam]
- Duration of seizures [1, 4]: 25 ± 6 s
- Latency to seizures [1, 4]: 203 ± 12 s
- Dead animals <20′ ([1]; died within 20 minutes after pentylenetetrazol injection, n/10): 2/10
- Dead animals <5 h ([1]; died within 5 hours after pentylenetetrazol injection, n/10): 4/10
- Rats with MMS (n/tot) ([1]; major motor seizures, same treatment, pentylenetetrazol 100 mg/kg i.p.): 1/10
- Rats with MCC (n/tot) ([1]; minor clonic contractions, same treatment, pentylenetetrazol 100 mg/kg i.p.): 3/10

Structure (SMILES): C1CCc2nnnn2CC1 [pentylenetetrazol]
- ED50 [2]: 70 to 75 mg/kg

Structure (SMILES): CCCC(CCC)C(=O)[O-].[Na+] [sodium valproate]
- effect of valproate alone at the dose used in the combination [3]: ineffective when taken alone
